Format in all cases: functional
Experiment [1] deals with Haemophilus influenzae. In words: In vitro antibacterial activity against Haemophilus influenzae GYR1435.
In experiment [2] the test system is Staphylococcus aureus. Nature of the experiment: In vitro antibacterial activity against Staphylococcus aureus 1775 strain.
In experiment [3] the test system is Staphylococcus aureus. In words: In vitro antibacterial activity against Staphylococcus aureus NCTC 10649M strain.
Experiment [4] deals with Streptococcus pneumoniae. In words: In vitro antibacterial activity against Streptococcus pneumoniae 5649.
The subject of experiment [5] is Streptococcus pneumoniae. In words: In vitro antibacterial activity against Streptococcus pneumoniae 5979.
The test system of experiment [6] is Streptococcus pyogenes. In words: In vitro antibacterial activity against Streptococcus pyogenes 930.
The test system of experiment [7] is Streptococcus pyogenes. Nature of the experiment: In vitro antibacterial activity against Streptococcus pyogenes EES61.
Experiment [8] deals with Streptococcus pyogenes. In words: In vitro antibacterial activity against Streptococcus pyogenes PIU 2548.
The subject of experiment [9] is Staphylococcus aureus. Nature of the experiment: In vitro antibacterial activity against Staphylococcus aureus A5177 strain.
For experiment [10], the system named is Streptococcus pneumoniae. Nature of the experiment: In vitro antibacterial activity against Streptococcus pneumoniae ATCC 6303.

In brackets after ≈: the same amount, converted by molar mass.

With `CC[C@H]1OC(=O)[C@H](C)C(=O)[C@H](C)[C@@H](OC2O[C@H](C)C[C@H](N(C)C)[C@H]2O)[C@@](C)(OCC#Cc2ccc3nccnc3c2)C[C@@H](C)/C(=N\OC)[C@H](C)[C@H]2NC(=O)O[C@@]21C` (stereo not given in full), the MIC in experiment [1] is 8 µg/mL (≈ 10.1 µM); in experiment [2], above 128 µg/mL; in [3] it was 0.25 µg/mL (≈ 0.315 µM); in [4] it was 0.125 µg/mL (≈ 0.157 µM); in experiment [5], 0.25 µg/mL (≈ 0.315 µM); in experiment [6], 8 µg/mL (≈ 10.1 µM). Besides, the MIC in [7] is 0.008 µg/mL (≈ 0.0101 µM); in [8], 0.5 µg/mL (≈ 0.63 µM); in experiment [9] it was 0.008 µg/mL (≈ 0.0101 µM); in experiment [10], 0.008 µg/mL (≈ 0.0101 µM).

For the compound `CC[C@H]1OC(=O)[C@H](C)C(=O)[C@H](C)[C@@H](OC2O[C@H](C)C[C@H](N(C)C)[C@H]2O)[C@@](C)(OCC#Cc2ccc(-c3nnn(C)n3)s2)C[C@@H](C)/C(=N\OC)[C@H](C)[C@H]2NC(=O)O[C@@]21C` (stereo not given in full), the MIC in experiment [1] is 4 µg/mL (≈ 4.82 µM); in experiment [2] it was 128 µg/mL (≈ 154 µM); in experiment [3], 0.25 µg/mL (≈ 0.301 µM); in experiment [4] it was 0.06 µg/mL (≈ 0.0723 µM); in experiment [5] it was 0.5 µg/mL (≈ 0.602 µM); in experiment [6], 32 µg/mL (≈ 38.6 µM). The MIC in experiment [7] was 0.008 µg/mL (≈ 0.00964 µM); in experiment [8], 0.125 µg/mL (≈ 0.151 µM); in experiment [9], 0.008 µg/mL (≈ 0.00964 µM); in experiment [10], 0.008 µg/mL (≈ 0.00964 µM).

In the case of `CC[C@H]1OC(=O)[C@H](C)C(=O)[C@H](C)[C@@H](OC2O[C@H](C)C[C@H](N(C)C)[C@H]2O)[C@@](C)(OCC#Cc2cnc3ccccc3c2)C[C@@H](C)/C(=N\OC)[C@H](C)[C@H]2NC(=O)O[C@@]21C` (stereo not given in full), the MIC was determined as 4 µg/mL (≈ 5.04 µM) in experiment [1]; 128 µg/mL (≈ 161 µM) in [2]; 1 µg/mL (≈ 1.26 µM) in experiment [3]; 0.125 µg/mL (≈ 0.158 µM) in experiment [4]; 0.25 µg/mL (≈ 0.315 µM) in experiment [5]; 1 µg/mL (≈ 1.26 µM) in experiment [6]. For the same compound, the MIC came to 0.008 µg/mL (≈ 0.0101 µM) in experiment [7], 0.125 µg/mL (≈ 0.158 µM) in [8], 0.25 µg/mL (≈ 0.315 µM) in experiment [9] and 0.008 µg/mL (≈ 0.0101 µM) in experiment [10].

Turning to `CC[C@H]1OC(=O)[C@H](C)C(=O)[C@H](C)[C@@H](OC2O[C@H](C)C[C@H](N(C)C)[C@H]2O)[C@@](C)(OCC#Cc2ccc(-c3ccccn3)s2)C[C@@H](C)/C(=N\OC)[C@H](C)[C@H]2NC(=O)O[C@@]21C` (stereo not given in full), the MIC in [1] turned out to be 4 µg/mL (≈ 4.85 µM); in [2] it was 64 µg/mL (≈ 77.6 µM); in experiment [3], 0.25 µg/mL (≈ 0.303 µM); in experiment [4], 0.008 µg/mL (≈ 0.0097 µM); in experiment [5], 0.008 µg/mL (≈ 0.0097 µM); in experiment [6], 16 µg/mL (≈ 19.4 µM). The MIC in [7] worked out at 0.008 µg/mL (≈ 0.0097 µM); in experiment [8], 0.03 µg/mL (≈ 0.0364 µM); in experiment [9], 0.008 µg/mL (≈ 0.0097 µM); in [10] it was 0.008 µg/mL (≈ 0.0097 µM).

On to `CC[C@H]1OC(=O)[C@H](C)C(=O)[C@H](C)[C@@H](OC2O[C@H](C)C[C@H](N(C)C)[C@H]2O)[C@@](C)(OCC#Cc2cnc3cccnc3c2)C[C@@H](C)/C(=N\OC)[C@H](C)[C@H]2NC(=O)O[C@@]21C` (stereo not given in full), for which the MIC in [1] is 2 µg/mL (≈ 2.52 µM); in experiment [2], above 128 µg/mL; in experiment [3] it was 1 µg/mL (≈ 1.26 µM); in experiment [4] it was 0.03 µg/mL (≈ 0.0378 µM); in [5], 1 µg/mL (≈ 1.26 µM); in experiment [6], 0.5 µg/mL (≈ 0.63 µM). In addition, the MIC in experiment [7] stood at 0.008 µg/mL (≈ 0.0101 µM); in experiment [8] it was 0.06 µg/mL (≈ 0.0756 µM); in experiment [9], 0.008 µg/mL (≈ 0.0101 µM); in experiment [10], 0.008 µg/mL (≈ 0.0101 µM).

Take `CC[C@H]1OC(=O)[C@@](C)(F)C(=O)[C@H](C)[C@@H](OC2O[C@H](C)C[C@H](N(C)C)[C@H]2O)[C@@](C)(OCC#Cc2cnc3ccccc3c2)C[C@@H](C)/C(=N\OC)[C@H](C)[C@H]2NC(=O)O[C@@]21C` (stereo not given in full): the MIC in experiment [1] worked out at 4 µg/mL (≈ 4.93 µM); in [2] it was 64 µg/mL (≈ 78.9 µM); in experiment [3] it was 0.5 µg/mL (≈ 0.617 µM); in experiment [4] it was 0.125 µg/mL (≈ 0.154 µM); in experiment [5], 0.125 µg/mL (≈ 0.154 µM); in [6], 0.5 µg/mL (≈ 0.617 µM). Also, the MIC in [7] is 0.008 µg/mL (≈ 0.00986 µM); in [8] it was 0.25 µg/mL (≈ 0.308 µM); in experiment [9], 0.25 µg/mL (≈ 0.308 µM); in experiment [10] it was 0.008 µg/mL (≈ 0.00986 µM).

`CC[C@H]1OC(=O)[C@@](C)(F)C(=O)[C@H](C)[C@@H](OC2O[C@H](C)C[C@H](N(C)C)[C@H]2O)[C@@](C)(OCC#Cc2ccc(-c3nnn(C)n3)s2)C[C@@H](C)/C(=N\OC)[C@H](C)[C@H]2NC(=O)O[C@@]21C` (stereo not given in full): the MIC came to 8 µg/mL (≈ 9.43 µM) in experiment [1]; 64 µg/mL (≈ 75.5 µM) in [2]; 1 µg/mL (≈ 1.18 µM) in experiment [3]; 0.125 µg/mL (≈ 0.147 µM) in experiment [4]; 0.25 µg/mL (≈ 0.295 µM) in experiment [5]; 8 µg/mL (≈ 9.43 µM) in experiment [6]. Also, the MIC in experiment [7] came out at 0.008 µg/mL (≈ 0.00943 µM); in experiment [8] it was 0.5 µg/mL (≈ 0.59 µM); in experiment [9], 0.25 µg/mL (≈ 0.295 µM); in experiment [10], 0.008 µg/mL (≈ 0.00943 µM).

For the compound `CC[C@H]1OC(=O)[C@H](C)[C@@H](O[C@H]2C[C@@](C)(OC)[C@@H](O)[C@H](C)O2)[C@H](C)[C@@H](O[C@@H]2O[C@H](C)C[C@H](N(C)C)[C@H]2O)[C@](C)(O)C[C@@H](C)C(=O)[C@H](C)[C@@H](O)[C@]1(C)O` [ERYTHROMYCIN], the MIC was 4 µg/mL (≈ 5.45 µM) in [1]; above 128 µg/mL in [2]; 0.5 µg/mL (≈ 0.681 µM) in [3]; 4 µg/mL (≈ 5.45 µM) in experiment [4]; above 128 µg/mL in experiment [5]; above 128 µg/mL in [6]. For the same compound, the MIC is 0.015 µg/mL (≈ 0.0204 µM) in experiment [7], 8 µg/mL (≈ 10.9 µM) in experiment [8], above 128 µg/mL in [9] and 0.015 µg/mL (≈ 0.0204 µM) in experiment [10].

In the case of `CC[C@H]1OC(=O)[C@H](C)C(=O)[C@H](C)[C@@H](O[C@@H]2O[C@H](C)C[C@H](N(C)C)[C@H]2O)[C@](C)(OC)C[C@@H](C)C(=O)[C@H](C)[C@H]2N(CCCCn3cnc(-c4cccnc4)c3)C(=O)O[C@]12C` [TELITHROMYCIN], the MIC in [1] is 2 µg/mL (≈ 2.46 µM); in experiment [2], above 100 µg/mL; in [3] it was 0.1 µg/mL (≈ 0.123 µM); in experiment [4] it was 0.5 µg/mL (≈ 0.616 µM); in experiment [5], 8 µg/mL (≈ 9.85 µM); in [6] it was 8 µg/mL (≈ 9.85 µM). Further, the MIC in experiment [7] worked out at 0.004 µg/mL (≈ 0.00493 µM); in [8], 2 µg/mL (≈ 2.46 µM); in experiment [9], 0.1 µg/mL (≈ 0.123 µM); in experiment [10] it was 0.004 µg/mL (≈ 0.00493 µM).
